Our source for the Activity and pH values is ChEMBL document CHEMBL5137133, “Effects of the Anthocyanin Hirsutidin on Gastric Ulcers: Improved Healing through Antioxidant Mechanisms” (J Nat Prod, 2022).

In data set [1] the test system is Rattus norvegicus. In words: Anti-ulcer activity in Wistar rat model of ethanol-induced gastric ulcer assessed as attenuation of TNFalpha level at 10 to 20 mg/kg, po administered once daily for 7 days followed by ethanol injection after 1 hr post last dose and measured after 4 hrs by ELISA. The class given is functional. Particulars: dose 10-20 mg/kg, time 173 hrs.

Data set [2] can be described thus: Acute toxicity in po dosed mouse assessed as morbidity. The class given is organism-based. Particulars: in vivo.
Data set [3] in a line: Acute toxicity in po dosed mouse assessed as mortality. The class given is organism-based. The following applies: in vivo.
Data set [4] deals with Rattus norvegicus. In words: Anti-ulcer activity in Wistar rat model of ethanol-induced gastric ulcer assessed as increase in gastric pH at 10 mg/kg, po administered once daily for 7 days followed by ethanol injection after 1 hr post last dose and measured after 4 hrs. The class given is functional. Particulars: time 173 hrs.
The test system of data set [5] is Rattus norvegicus. In words: Anti-ulcer activity in Wistar rat model of ethanol-induced gastric ulcer assessed as increase in gastric pH at 20 mg/kg, po administered once daily for 7 days followed by ethanol injection after 1 hr post last dose. The class given is functional. The following applies: time 173 hrs.
Data set [6] relates to Rattus norvegicus. In words: Anti-ulcer activity in Wistar rat model of ethanol-induced gastric ulcer assessed as reduction in total acidity levels at 10 to 20 mg/kg, po administered once daily for 7 days followed by ethanol injection after 1 hr post last dose and measured after 4 hrs. The class given is functional. More on the design: scale not given: the % may be the effect or the level left. The following applies: dose 10-20 mg/kg, time 173 hrs.

Data set [7] has as its system Rattus norvegicus. In words: Anti-ulcer activity in Wistar rat model of ethanol-induced gastric ulcer assessed as reduction in ulcer score index at 10 to 20 mg/kg, po administered once daily for 7 days followed by ethanol injection after 1 hr post last dose and measured after 4 hrs. The class given is functional, organism-based. The following applies: dose 10-20 mg/kg, time 173.0 hrs.

Data set [8] concerns Rattus norvegicus. In words: Anti-ulcer activity in Wistar rat model of ethanol-induced gastric ulcer assessed as restoration of endogenous GSH levels at 10 to 20 mg/kg, po administered once daily for 7 days followed by ethanol injection after 1 hr post last dose and measured after 4 hrs by Ellman's method. The class given is functional, organism-based. The following applies: dose 10-20 mg/kg, time 173.0 hrs. A general note: Ellman's reagent forms a yellow product with free thiols.

Data set [9] concerns Rattus norvegicus. The data set can be described thus: Anti-ulcer activity in Wistar rat model of ethanol-induced gastric ulcer assessed as restoration of endogenous SOD levels at 10 to 20 mg/kg, po administered once daily for 7 days followed by ethanol injection after 1 hr post last dose and measured after 4 hrs. The class given is functional, organism-based. The following applies: dose 10-20 mg/kg, time 173.0 hrs.

Data set [10] deals with Rattus norvegicus. The data set can be described thus: Anti-ulcer activity in Wistar rat model of ethanol-induced gastric ulcer assessed as restoration of endogenous CAT levels at 10 to 20 mg/kg, po administered once daily for 7 days followed by ethanol injection after 1 hr post last dose and measured after 4 hrs by H2O2 decomposition assay. The class given is functional, organism-based. Particulars: dose 10-20 mg/kg, time 173.0 hrs.

The subject of data set [11] is Rattus norvegicus. The data set can be described thus: Anti-ulcer activity in Wistar rat model of ethanol-induced gastric ulcer assessed as reduction in MDA levels at 10 to 20 mg/kg, po administered once daily for 7 days followed by ethanol injection after 1 hr post last dose and measured after 4 hrs by Wills method. It counts as functional. More on the design: scale not given: the % may be the effect or the level left. The following applies: dose 10-20 mg/kg, time 173 hrs.

Data set [12] deals with Rattus norvegicus. In words: Anti-ulcer activity in Wistar rat model of ethanol-induced gastric ulcer assessed as reduction in MPO levels at 10 to 20 mg/kg, po administered once daily for 7 days followed by ethanol injection after 1 hr post last dose and measured after 4 hrs. It counts as functional, organism-based. The following applies: dose 10-20 mg/kg, time 173.0 hrs.

Data set [13] concerns Rattus norvegicus. In words: Anti-ulcer activity in Wistar rat model of ethanol-induced gastric ulcer assessed as increase in PGE2 levels at 10 to 20 mg/kg, po administered once daily for 7 days followed by ethanol injection after 1 hr post last dose and measured after 4 hrs by ELISA. The class given is functional, organism-based. Particulars: dose 10-20 mg/kg, time 173.0 hrs. On the technique in general: In an ELISA, binding on a coated surface is turned into a signal by an enzyme label.

Data set [14] concerns Rattus norvegicus. The data set can be described thus: Anti-ulcer activity in Wistar rat model of ethanol-induced gastric ulcer assessed as protection of NO depletion at 10 to 20 mg/kg, po administered once daily for 7 days followed by ethanol injection after 1 hr post last dose and measured after 4 hrs by ELISA. The class given is functional. Particulars: dose 10-20 mg/kg, time 173 hrs.

The subject of data set [15] is Rattus norvegicus. The data set can be described thus: Anti-ulcer activity in Wistar rat model of ethanol-induced gastric ulcer assessed as attenuation of AST level at 10 to 20 mg/kg, po administered once daily for 7 days followed by ethanol injection after 1 hr post last dose and measured after 4 hrs by ELISA. The class given is functional. The following applies: dose 10-20 mg/kg, time 173 hrs.

In data set [16] the test system is Rattus norvegicus. The data set can be described thus: Anti-ulcer activity in Wistar rat model of ethanol-induced gastric ulcer assessed as attenuation of ALT level at 10 to 20 mg/kg, po administered once daily for 7 days followed by ethanol injection after 1 hr post last dose and measured after 4 hrs by ELISA. It counts as functional. The following applies: dose 10-20 mg/kg, time 173 hrs.

Data set [17] concerns Rattus norvegicus. The data set can be described thus: Anti-ulcer activity in Wistar rat model of ethanol-induced gastric ulcer assessed as attenuation of ALP level at 10 to 20 mg/kg, po administered once daily for 7 days followed by ethanol injection after 1 hr post last dose and measured after 4 hrs by ELISA. It counts as functional. Particulars: dose 10-20 mg/kg, time 173 hrs.

Data set [18] relates to Rattus norvegicus. The data set can be described thus: Anti-ulcer activity in Wistar rat model of ethanol-induced gastric ulcer assessed as reduction in serum IL-1beta level at 10 to 20 mg/kg, po administered once daily for 7 days followed by ethanol injection after 1 hr post last dose and measured after 4 hrs by ELISA. It counts as functional, organism-based. Particulars: dose 10-20 mg/kg, time 173.0 hrs.

For data set [19], the system named is Rattus norvegicus. The data set can be described thus: Anti-ulcer activity in Wistar rat model of ethanol-induced gastric ulcer assessed as reduction in serum IL-6 level at 10 to 20 mg/kg, po administered once daily for 7 days followed by ethanol injection after 1 hr post last dose and measured after 4 hrs by ELISA. The class given is functional, organism-based. The following applies: dose 10-20 mg/kg, time 173.0 hrs.

Data set [20] deals with Rattus norvegicus. In words: Anti-ulcer activity in Wistar rat model of ethanol-induced gastric ulcer assessed as protection against gastric tissue damages at 10 to 20 mg/kg, po administered once daily for 7 days followed by ethanol injection after 1 hr post last dose and measured after 4 hrs by ELISA. It counts as functional, organism-based. The following applies: dose 10-20 mg/kg, time 173.0 hrs.

Activity calls are given as the source filed them. The rule behind the calls is not given here.

Turning to `COc1cc(O)c2cc(O)c(-c3cc(OC)c(O)c(OC)c3)[o+]c2c1`, the Activity in the data set on Rattus norvegicus [1] is given as 27.59%; in [2] it was “Non-Toxic”; in data set [3], “Non-Toxic”; with Rattus norvegicus [6] it was 37.76%; with Rattus norvegicus [11], 49.25%; with Rattus norvegicus [14], 85.1%. Also, the Activity was found to be 35.3% in the data set with Rattus norvegicus [15], 38.85% with Rattus norvegicus [16] and 47.68% in the data set with Rattus norvegicus [17]. Moreover, the pH with Rattus norvegicus [4] was 7.17; in the data set with Rattus norvegicus [5] it was 6.36. The result in the data set with Rattus norvegicus [7], with Rattus norvegicus [8], in the data set on Rattus norvegicus [9], in the data set with Rattus norvegicus [10], in the data set with Rattus norvegicus [12] and in the data set on Rattus norvegicus [13] was Active. The result in the data set with Rattus norvegicus [18], with Rattus norvegicus [19] and with Rattus norvegicus [20] was Active.
